Data: PMC4319893, “Targeting Protein-Protein Interactions with Trimeric Ligands: High Affinity Inhibitors of the MAGUK Protein Family” (PLoS ONE, 2015)

Experiments:
PSD-95 PDZ1-2-3 = target: T1, PSD-95 PDZ1-2-3 (Homo sapiens, UniProt P78352); assay: Fluorescence polarization (FP) binding assay, PSD-95 PDZ1-2-3
T1 construct: 7xHis; made in house; host or cells: E. coli BL21(DE3)pLysS
Description: (§1) The monomeric FP assay was conducted as previously described except that the proteins were diluted in 50 mM TRIS, 100 mM NaCl, 1 mM ethylenediaminetetraacetate (EDTA), 1 mM DTT.[34] The monomeric probe was only used when monomeric binding to PSD95 PDZ1-2 and PSD95 PDZ1-2-3 was evaluated, whereas 18 was used as probe for evaluating the binding of the dimeric and trimeric ligands. […] In all of the experiments a blank (buffer) and a reference sample (0.5 nM probe in buffer) were used. A total of 30 μl was pipetted into the wells of a 384 flat black bottom well plate. The FP was measured on a Tecan Safire 2 microplate reader (Tecan Group LTD., Männedorf, Germany). The absorption/emission wavelengths were set to 635/670 nm, corresponding to the Cy5 spectra. The obtained IC50 values were converted to K i values using the equations described by Nikolovska-Coleska et al.[35] […] Consequently, the Ki-value will become negative when the difference between the IC50-value and the Kd is too great.[35, 36]

FL PSD-95 wild-type = target: T2, FL PSD-95 wild-type (Homo sapiens, UniProt P78352); assay: Stopped-flow spectrometry binding kinetics, FL PSD-95 wild-type; settings: 50 mM potassium phosphate pH 7.5, 10°C
T2 construct: PSD-95 FL: 61-end; made in house; host or cells: E. coli (pET32m3C vector; construct donated by M. Zhang)
Description: (§2) Kinetic experiments using stopped-flow were carried out under the conditions used previously,[37, 38] namely in 50 mM potassium phosphate, pH 7.5 at 10°C. The change in fluorescence upon binding was monitored with a 330 nm band-pass filter following excitation at 280 nm. […] Regarding the fluorophores and the observed changes in fluorescence, several events contribute to the observed signal. […] This could be either through FRET or by absorbing excitation light. Both fluorophores are also themselves excited at 280 nm (less) and 330 nm (more) and their intrinsic fluorescence may change on binding to the proteins.
(§3) This observed rate constant might be the average of the two k obs values observed upon excitation at 280 nm/emission at 330 nm.

FL PSD-95 (I195W) = target: T3, FL PSD-95 (I195W) (Homo sapiens, UniProt P78352, I195W); assay: Stopped-flow spectrometry binding kinetics, FL PSD-95 I195W; settings: 50 mM potassium phosphate pH 7.5, 10°C
T3 construct: PSD-95 FL: 61-end; made in house; host or cells: E. coli (pET32m3C vector; QuickChange mutagenesis)
Description: as §2, §3

PSD-95 PDZ1-2 = PSD-95 PDZ1-2 (Homo sapiens, UniProt P78352); settings: FP
Description: as §1

FL PSD-95 (I100W) = target: T4, FL PSD-95 (I100W) (Homo sapiens, UniProt P78352, I100W); assay: Stopped-flow spectrometry binding kinetics, FL PSD-95 I100W; settings: 50 mM potassium phosphate pH 7.5, 10°C
T4 construct: PSD-95 FL: 61-end; made in house; host or cells: E. coli (pET32m3C vector; QuickChange mutagenesis)
Description: as §2, §3

single PDZ3 domain = test system: single PDZ3 domain; set-up: method as in PMID 21653701; settings: observed previously; cited from earlier work

Substance	fold lower affinity compared to trimeric ligand 17, PDZ1-2-3 (PSD-95 PDZ1-2-3) [fold]	kon app, PSD-95 wild-type (FL PSD-95 wild-type) [M⁻¹ s⁻¹]	kon app, PSD-95 FL I195W (FL PSD-95 (I195W)) [M⁻¹ s⁻¹]	fold lower affinity compared to trimeric ligand 17, PDZ1-2 (PSD-95 PDZ1-2) [fold]	kon app, PSD-95 FL I100W (FL PSD-95 (I100W)) [M⁻¹ s⁻¹]	observed rate constant dansyl-1/PDZ3 (single PDZ3 domain) [s⁻¹]
YKQTSV [Compound 1]	> 1000	6e+06 ± 100000	6.3e+06 ± 130000	> 1000	6.3e+06 ± 190000	
dansyl-1: N-terminally dansylated CRIPT hexapeptide YKQTSV						1.6
